Test results reported in patent US12378268B2, “Heterocyclic THR-β receptor agonist compound and preparation method and use therefor” (Hepagene Therapeutics (HK) Limited, priority 2019, dated 2025).
pEC50: −log10 of the molar value.

What was measured:
THR-β = target: T1, THR-β (Homo sapiens, UniProt P10828); assay: Test of the binding ability of the compound to TRβ (TRβ LBD/RXR, biotin-SRC2-2 co-activating peptide, 665/615 nm fluorescence ratio); assay type: biochemical; conditions: for Emax: activity relative to positive control; for α/β selectivity (multiple): calculated after being standardized with T3
T1 construct: TRB LBD, GST purchased from Thermo Fisher; purchased Thermo Fisher PV4762
Protocol: 1. Main experimental materials and instruments:
Biotin-SRC2-2 co-activating peptide purchased from Sangon Biotech (Shanghai) Co., Ltd.
TRB LBD, GST purchased from Thermo Fisher (product No. PV4762)
Europium-conjugated anti-glutathione antibody purchased from Cisbio (product No. 61GSTKLB)
Streptavidin-D2 purchased from Cisbio (product No. 610SADAB)
(§1) 4.2 The activity percentage was calculated as follows: […]
(§2) RatioCompound: Average of the relative ratios of the compound wells of the embodiments
(§3) RatioPositive: Average of the relative ratios of all positive control wells.
(§4) RatioBlank: Average of the relative ratios of all negative control wells.
(§5) EC50 was calculated by fitting the relationship between activity (%) and compound logarithmic concentration with Graphpad 5.0 by a nonlinear regression method.
(§6) Y=Bottom+ (top-bottom)/(1+10^((LogEC50−X)*slope))
(§7) X: Compound logarithmic concentration Y: Percentage activity

THR-α = target: T2, THR-α (Homo sapiens, UniProt P10827); assay: Test of the binding ability of the compound to TRα (TRα LBD/RXRα, biotin-SRC2-2 co-activating peptide, 665/615 nm fluorescence ratio); assay type: biochemical; conditions: for Emax: activity relative to positive control
T2 construct: TR-a LBD, GST purchased from Thermo Fisher; purchased Thermo Fisher PV4762
Protocol: as §1, §2, §3, §4, §5, §6, §7

T1 sequence (P10828 217-461 limits assumed, other chains not shown): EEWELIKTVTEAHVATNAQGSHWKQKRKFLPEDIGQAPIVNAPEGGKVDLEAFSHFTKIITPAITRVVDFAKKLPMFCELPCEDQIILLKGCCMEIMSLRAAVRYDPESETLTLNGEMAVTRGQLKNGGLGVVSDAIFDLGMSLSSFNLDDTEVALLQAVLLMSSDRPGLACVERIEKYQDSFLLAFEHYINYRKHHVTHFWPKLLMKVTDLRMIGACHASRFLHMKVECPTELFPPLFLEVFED
T1 sequence (P28702 whole entry partner, other chains not shown, the tested form may be a part): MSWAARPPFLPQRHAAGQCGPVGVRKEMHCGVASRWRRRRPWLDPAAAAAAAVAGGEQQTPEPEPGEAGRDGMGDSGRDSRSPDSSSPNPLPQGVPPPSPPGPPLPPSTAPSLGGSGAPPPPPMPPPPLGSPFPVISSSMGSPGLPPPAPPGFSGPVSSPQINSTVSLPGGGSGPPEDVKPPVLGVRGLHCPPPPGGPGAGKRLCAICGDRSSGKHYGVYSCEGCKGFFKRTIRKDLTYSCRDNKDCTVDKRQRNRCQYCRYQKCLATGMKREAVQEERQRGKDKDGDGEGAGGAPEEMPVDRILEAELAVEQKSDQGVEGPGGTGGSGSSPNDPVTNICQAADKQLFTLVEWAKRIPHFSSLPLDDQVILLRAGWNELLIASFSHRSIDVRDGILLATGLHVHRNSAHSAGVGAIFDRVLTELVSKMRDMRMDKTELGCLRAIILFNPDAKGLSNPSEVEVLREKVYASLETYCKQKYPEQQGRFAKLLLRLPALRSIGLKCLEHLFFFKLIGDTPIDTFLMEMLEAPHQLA
T2 sequence (P10827 163-410 isoform P10827-2 limits assumed, other chains not shown): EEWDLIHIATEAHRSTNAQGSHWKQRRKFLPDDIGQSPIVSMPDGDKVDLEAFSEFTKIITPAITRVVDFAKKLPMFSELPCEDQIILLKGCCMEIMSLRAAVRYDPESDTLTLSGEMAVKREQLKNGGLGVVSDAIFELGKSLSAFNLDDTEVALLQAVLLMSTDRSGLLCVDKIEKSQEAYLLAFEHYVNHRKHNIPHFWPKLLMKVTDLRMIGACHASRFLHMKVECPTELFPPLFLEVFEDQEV
T2 sequence (P19793 whole entry partner, other chains not shown, the tested form may be a part): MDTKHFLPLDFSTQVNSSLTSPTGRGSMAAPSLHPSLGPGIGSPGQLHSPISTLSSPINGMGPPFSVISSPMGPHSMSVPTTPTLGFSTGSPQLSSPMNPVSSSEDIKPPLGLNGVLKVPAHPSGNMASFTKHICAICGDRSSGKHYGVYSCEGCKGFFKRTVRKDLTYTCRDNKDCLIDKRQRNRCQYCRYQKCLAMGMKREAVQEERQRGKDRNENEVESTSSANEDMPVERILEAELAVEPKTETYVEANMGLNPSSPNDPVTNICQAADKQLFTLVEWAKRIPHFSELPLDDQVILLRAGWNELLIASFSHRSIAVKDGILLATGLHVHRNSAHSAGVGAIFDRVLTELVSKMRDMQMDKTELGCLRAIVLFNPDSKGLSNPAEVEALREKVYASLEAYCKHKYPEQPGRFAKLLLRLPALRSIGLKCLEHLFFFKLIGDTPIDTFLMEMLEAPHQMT

Row | Structure (SMILES) | pEC50 (THR-β) | Emax (THR-β) [%] | α/β selectivity (multiple) (THR-β) | pEC50 (THR-α) | Emax (THR-α) [%]
1 | Cc1cc(OCP(=O)(O)O)cc(C)c1Cc1ccc(O)c2ccccc12 [A, ((4-((4-hydroxynaphthyl-1-yl)methyl)-3,5-dimethylphenoxy)methyl) phosphoric acid, reference compound] | 6.96 | 100 | 4.7 | 6.55 | 106
2 | Cc1cc(OCP(=O)(O)O)cc(C)c1Cc1ccc(O)c2c1CCCC2(C)C [Compound 3] | 6.98 | 100 | 4.8 | 6.57 | 105
3 | Cc1cc(OCP(=O)(O)O)cc(C)c1Cc1ccc(O)c2c1CCCCC2(C)C [Compound 4, ((4-((4-hydroxy-5,5-dimethyl-6,7,8,9-tetrahydro-5H-benzo[7]annun-1-yl)methyl)-3,5-dimethylphenoxy)methyl) phosphoric acid] | < 6.00 |  |  | < 5.00 | 

These reach a higher pEC50 (THR-β). Values come first.

Row | pEC50 (THR-β) | Emax (THR-β) [%] | α/β selectivity (multiple) (THR-β) | pEC50 (THR-α) | Emax (THR-α) [%] | Structure (SMILES)
4 | 7.39 | 111 | 11.4 | 6.64 | 106 | Cc1cc(OCP(=O)(O)O)cc(C)c1Cc1ccc(O)c2c1CCCC2 [B, reference compound]
5 | > 7.00 | 104 |  | > 6.70 | 98.3 | Cc1cc(OCP(=O)(O)O)cc(C)c1Cc1ccc(O)c2c1CCC2C (stereo not drawn) [Compound 2]
